In PubChem BioAssay AID330 (DTP/NCI, 2004):
Values joined by “and” are separate entries in the source; they are usually repeats but may differ in a detail not shown here. Equal values may be shown once. Toxic doses and inconclusive results are not listed. How the source made its calls: active means survival T/C of 150% or more; inactive means T/C below 125% in these data.

System: P388 leukemia ip, CD2F1 mice, survival T/C
Test: NCI In Vivo Anticancer Drug Screen. Data for tumor model P388 Leukemia (intraperitoneal) in CD2F1 (CDF1) mice
Conditions: endpoint: median survival time, higher = longer survival
Procedure, shortened: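 Mice carrying the transplanted tumor received test compound or vehicle. Survival was recorded in each group, and the value is the treated-group measurement divided by that of the vehicle-treated control group.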

[1] = dose: 50.0 mg/kg/injection, schedule: Q01DX005 (ip), vehicle: saline with Tween-80
[2] = dose: 100.0 mg/kg/injection, schedule: Q01DX005 (ip), vehicle: saline with Tween-80
[3] = dose: 200.0 mg/kg/injection, schedule: Q01DX005 (ip), vehicle: saline with Tween-80
[4] = dose: 60.0 mg/kg/injection, schedule: Q01DX005 (ip), vehicle: saline with Tween-80
[5] = dose: 120.0 mg/kg/injection, schedule: Q01DX005 (ip), vehicle: saline with Tween-80
[6] = dose: 240.0 mg/kg/injection, schedule: Q01DX005 (ip), vehicle: saline with Tween-80
[7] = dose: 50.0 mg/kg/injection, schedule: Q01DX009 (ip), vehicle: saline
[8] = dose: 12.5 mg/kg/injection, schedule: Q01DX009 (ip), vehicle: saline
[9] = dose: 25.0 mg/kg/injection, schedule: Q01DX009 (ip), vehicle: saline
[10] = dose: 60.0 mg/kg/injection, schedule: Q01DX005 (ip), vehicle: Klucel (hydroxypropylcellulose) (HPC)
[11] = dose: 120.0 mg/kg/injection, schedule: Q01DX005 (ip), vehicle: Klucel (hydroxypropylcellulose) (HPC)
[12] = dose: 240.0 mg/kg/injection, schedule: Q01DX005 (ip), vehicle: Klucel (hydroxypropylcellulose) (HPC)
[13] = dose: 100.0 mg/kg/injection, schedule: Q04DX003 (ip), vehicle: saline with Tween-80
[14] = dose: 200.0 mg/kg/injection, schedule: Q04DX003 (ip), vehicle: saline with Tween-80
[15] = dose: 400.0 mg/kg/injection, schedule: Q04DX003 (ip), vehicle: saline with Tween-80
[16] = dose: 50.0 mg/kg/injection, schedule: Q01DX005 (ip), vehicle: Klucel (hydroxypropylcellulose) (HPC)
[17] = dose: 100.0 mg/kg/injection, schedule: Q01DX005 (ip), vehicle: Klucel (hydroxypropylcellulose) (HPC)
[18] = dose: 200.0 mg/kg/injection, schedule: Q01DX005 (ip), vehicle: Klucel (hydroxypropylcellulose) (HPC)
[19] = dose: 50.0 mg/kg/injection, schedule: Q01DX009 (ip), vehicle: saline with Tween-80
[20] = dose: 100.0 mg/kg/injection, schedule: Q01DX009 (ip), vehicle: saline with Tween-80
[21] = dose: 200.0 mg/kg/injection, schedule: Q01DX009 (ip), vehicle: saline with Tween-80
[22] = dose: 400.0 mg/kg/injection, schedule: Q01DX009 (ip), vehicle: saline with Tween-80

Measured: T/C

C1=C[N-]c2c3c(ccc2=C1)=CC=C[N-]3.C1=C[N-]c2c3c(ccc2=C1)=CC=C[N-]3.O=[N+]([O-])O.[Cu+]
inactive: dose: 1.56 mg/kg/injection, schedule: Q04DX002 (ip), vehicle: saline 100 % of control | dose: 3.12 mg/kg/injection, schedule: Q04DX002 (ip), vehicle: saline 99 % of control and 98 % of control | dose: 6.25 mg/kg/injection, schedule: Q04DX002 (ip), vehicle: saline 99 % of control and 110 % of control and 98 % of control | dose: 12.5 mg/kg/injection, schedule: Q04DX002 (ip), vehicle: saline 120 % of control and 97 % of control | dose: 25.0 mg/kg/injection, schedule: Q04DX002 (ip), vehicle: saline 111 % of control and 97 % of control

CCn1c(C)cc(=NC(=O)c2ccccc2O)n1-c1ccccc1
inactive: dose: 100.0 mg/kg/injection, schedule: Q01DX001 (ip), vehicle: saline with Tween-80 103 % of control | dose: 200.0 mg/kg/injection, schedule: Q01DX001 (ip), vehicle: saline with Tween-80 106 % of control | dose: 400.0 mg/kg/injection, schedule: Q01DX001 (ip), vehicle: saline with Tween-80 102 % of control

Clc1ccc2nc3c(c(N4CCCCC4)c2c1)CCCC3
inactive: [1] 105 % of control | [2] 105 % of control | [3] 100 % of control

CC1(C)C=Cc2c(O)c(C(=O)/C=C/c3ccccc3)c3c(c2O1)C=CC(C)(C)O3
inactive: dose: 5.25 mg/kg/injection, schedule: Q01DX005 (ip), vehicle: Klucel (hydroxypropylcellulose) (HPC) 100 % of control | dose: 10.5 mg/kg/injection, schedule: Q01DX005 (ip), vehicle: Klucel (hydroxypropylcellulose) (HPC) 95 % of control | dose: 21.0 mg/kg/injection, schedule: Q01DX005 (ip), vehicle: Klucel (hydroxypropylcellulose) (HPC) 97 % of control | dose: 42.0 mg/kg/injection, schedule: Q01DX005 (ip), vehicle: Klucel (hydroxypropylcellulose) (HPC) 86 % of control

O=C(NC1C=Nc2ccc(Cl)cc2NC1=O)c1ccccc1Cl (stereo unspecified)
inactive: [4] 92 % of control | [5] 95 % of control | [6] 100 % of control

COC1=CC(=N/Cl)/C=CC/1=N/Cl
inactive: dose: 6.25 mg/kg/injection, schedule: Q01DX005 (ip), vehicle: saline 115 % of control | dose: 12.5 mg/kg/injection, schedule: Q01DX005 (ip), vehicle: saline 110 % of control | dose: 25.0 mg/kg/injection, schedule: Q01DX005 (ip), vehicle: saline 115 % of control

N=C(N)SCc1cccc(-c2nc3ccccc3c(=O)o2)c1
inactive: [7] 102 % of control | dose: 100.0 mg/kg/injection, schedule: Q01DX009 (ip), vehicle: saline 113 % of control

CC(Cl)CN(CC(C)Cl)c1ccc(-c2ccccc2)cc1 (stereo unspecified)
inactive: dose: 50.0 mg/kg/injection, schedule: Q01DX009 (ip), vehicle: Klucel (hydroxypropylcellulose) (HPC) 105 % of control and 109 % of control | dose: 100.0 mg/kg/injection, schedule: Q01DX009 (ip), vehicle: Klucel (hydroxypropylcellulose) (HPC) 124 % of control

CCN(CC)C(C)C(=O)Nc1c(C)cccc1Cl (stereo unspecified)
inactive: [8] 100 % of control | [9] 90 % of control | [7] 100 % of control

CC(C)CN1CC(=O)N2CCCC(c3ccccc3)N2C(=O)C1 (stereo unspecified)
inactive: [1] 95 % of control | [2] 115 % of control | [3] 112 % of control

COc1ccc2c(c1)SC1=NNC(=O)CN12
inactive: [10] 89 % of control | [11] 89 % of control | [12] 91 % of control

Cc1ccccc1NC(CCl)=NC(C)(C)C
inactive: [13] 98 % of control | [14] 107 % of control | [15] 104 % of control

CC1OC(O[C@H]2C[C@](O)(C(=O)CO)Cc3c(O)c4c(c(O)c32)C(=O)c2c(OCc3ccccc3)cccc2C4=O)CC(N)C1O (stereo partly specified)
inactive: dose: 3.13 mg/kg/injection, schedule: Q04DX003 (ip), vehicle: water 118 % of control | dose: 6.25 mg/kg/injection, schedule: Q04DX003 (ip), vehicle: distilled water + Tween-80 110 % of control | dose: 6.25 mg/kg/injection, schedule: Q04DX003 (ip), vehicle: water 118 % of control | dose: 12.5 mg/kg/injection, schedule: Q04DX003 (ip), vehicle: water 123 % of control | dose: 25.0 mg/kg/injection, schedule: Q04DX003 (ip), vehicle: water 123 % of control

CC1(C(=O)O)CCCC2(C)C(CC(=O)O)C(=O)CCC12 (stereo unspecified)
inactive: dose: 5.0 mg/kg/injection, schedule: Q01DX009 (ip), vehicle: saline with Tween-80 101 % of control | dose: 10.0 mg/kg/injection, schedule: Q01DX009 (ip), vehicle: saline with Tween-80 108 % of control | dose: 20.0 mg/kg/injection, schedule: Q01DX009 (ip), vehicle: saline with Tween-80 99 % of control

COc1ccc(N=Nc2c(-c3cccs3)nn(C(N)=S)c2C(F)(F)F)cc1
inactive: [16] 97 % of control | [17] 95 % of control | [18] 97 % of control

OCC(CCc1c[nH]c2ccccc12)c1c[nH]c2ccccc12 (stereo unspecified)
inactive: [10] 90 % of control | [11] 90 % of control | [12] 93 % of control

N#CSC1=C(SC#N)C1(F)F
inactive: dose: 12.5 mg/kg/injection, schedule: Q04DX002 (ip), vehicle: Klucel (hydroxypropylcellulose) (HPC) 100 % of control | dose: 25.0 mg/kg/injection, schedule: Q04DX002 (ip), vehicle: Klucel (hydroxypropylcellulose) (HPC) 100 % of control | dose: 50.0 mg/kg/injection, schedule: Q04DX002 (ip), vehicle: Klucel (hydroxypropylcellulose) (HPC) 104 % of control

Cc1cc(OC(=O)Nc2cc([N+](=O)[O-])ccc2C)c(Br)cc1Cl
inactive: [8] 98 % of control | [9] 93 % of control | [19] 117 % of control | [7] 100 % of control

C/C(=N\OCC(O)CNCCSCc1ccccc1)c1ccccc1Cl (stereo unspecified)
inactive: dose: 30.0 mg/kg/injection, schedule: Q01DX005 (ip), vehicle: Klucel (hydroxypropylcellulose) (HPC) 97 % of control | [10] 91 % of control | [11] 100 % of control and 91 % of control

O=c1c(-c2ccc(O)cc2)coc2c(C3OC(CO)C(O)C(O)C3O)c(O)ccc12 (stereo unspecified)
inactive: [1] 104 % of control | [2] 101 % of control | [3] 93 % of control

CS[C@@H]1C[C@H]2[C@@H]3CCC4=CC(=O)CC[C@]4(C)[C@H]3CC[C@]2(C)[C@H]1C(C)=O
inactive: dose: 12.5 mg/kg/injection, schedule: Q01DX009 (ip), vehicle: saline with Tween-80 90 % of control | dose: 25.0 mg/kg/injection, schedule: Q01DX009 (ip), vehicle: saline with Tween-80 90 % of control | [19] 100 % of control | [13] 100 % of control | [14] 90 % of control | [15] 100 % of control

CCOC(=O)C[N+](C)(C)C(C#N)C(C)c1ccccc1 (stereo unspecified)
inactive: dose: 60.0 mg/kg/injection, schedule: Q01DX005 (ip), vehicle: saline 95 % of control | dose: 120.0 mg/kg/injection, schedule: Q01DX005 (ip), vehicle: saline 95 % of control

CC1CCN(SSc2nc3ccccc3s2)CC1
inactive: [19] 104 % of control and 116 % of control | [20] 107 % of control and 112 % of control | [21] 110 % of control and 118 % of control | [22] 114 % of control

COC1=CC=C2Nc3nc(N)[nH]c(=O)c3SC2N1 (stereo unspecified)
inactive: [4] 99 % of control | [5] 90 % of control | [6] 97 % of control

CCc1nc(N)nc(N)c1-c1ccc2c(c1)nnn2C
inactive: [16] 104 % of control | [17] 104 % of control | [18] 95 % of control

COc1ccc(/C=N/NC(N)=S)cc1
inactive: [20] 109 % of control | [13] 100 % of control | [21] 100 % of control | [14] 113 % of control | [22] 109 % of control | [15] 109 % of control

C=C1C(=O)OC2C1C(O)C(OC(=O)/C(C)=C/C)C(C)C1C(=O)C=C(C)C21 (stereo unspecified)
inactive: dose: 6.25 mg/kg/injection, schedule: Q01DX005 (ip), vehicle: Klucel (hydroxypropylcellulose) (HPC) 107 % of control | dose: 12.5 mg/kg/injection, schedule: Q01DX005 (ip), vehicle: Klucel (hydroxypropylcellulose) (HPC) 114 % of control | dose: 25.0 mg/kg/injection, schedule: Q01DX005 (ip), vehicle: Klucel (hydroxypropylcellulose) (HPC) 115 % of control
